Paper PMC10263119, “WSD-0922, a novel brain-penetrant inhibitor of epidermal growth factor receptor, promotes survival in glioblastoma mouse models” (Neuro-Oncology Advances, 2023)

Legend:
Type in all cases: biochemical
EGFR = EGFR (Homo sapiens, UniProt P00533); test: cell-free in vitro kinase inhibition assay; kinetic data
EPHA1 = target: T1, EPHA1 (Homo sapiens, UniProt P21709); test: in vitro kinase inhibition, single concentration ([…]); settings: read-out: %Inhibition (1 μM WSD-0922)
T1 sequence (P21709 26-976): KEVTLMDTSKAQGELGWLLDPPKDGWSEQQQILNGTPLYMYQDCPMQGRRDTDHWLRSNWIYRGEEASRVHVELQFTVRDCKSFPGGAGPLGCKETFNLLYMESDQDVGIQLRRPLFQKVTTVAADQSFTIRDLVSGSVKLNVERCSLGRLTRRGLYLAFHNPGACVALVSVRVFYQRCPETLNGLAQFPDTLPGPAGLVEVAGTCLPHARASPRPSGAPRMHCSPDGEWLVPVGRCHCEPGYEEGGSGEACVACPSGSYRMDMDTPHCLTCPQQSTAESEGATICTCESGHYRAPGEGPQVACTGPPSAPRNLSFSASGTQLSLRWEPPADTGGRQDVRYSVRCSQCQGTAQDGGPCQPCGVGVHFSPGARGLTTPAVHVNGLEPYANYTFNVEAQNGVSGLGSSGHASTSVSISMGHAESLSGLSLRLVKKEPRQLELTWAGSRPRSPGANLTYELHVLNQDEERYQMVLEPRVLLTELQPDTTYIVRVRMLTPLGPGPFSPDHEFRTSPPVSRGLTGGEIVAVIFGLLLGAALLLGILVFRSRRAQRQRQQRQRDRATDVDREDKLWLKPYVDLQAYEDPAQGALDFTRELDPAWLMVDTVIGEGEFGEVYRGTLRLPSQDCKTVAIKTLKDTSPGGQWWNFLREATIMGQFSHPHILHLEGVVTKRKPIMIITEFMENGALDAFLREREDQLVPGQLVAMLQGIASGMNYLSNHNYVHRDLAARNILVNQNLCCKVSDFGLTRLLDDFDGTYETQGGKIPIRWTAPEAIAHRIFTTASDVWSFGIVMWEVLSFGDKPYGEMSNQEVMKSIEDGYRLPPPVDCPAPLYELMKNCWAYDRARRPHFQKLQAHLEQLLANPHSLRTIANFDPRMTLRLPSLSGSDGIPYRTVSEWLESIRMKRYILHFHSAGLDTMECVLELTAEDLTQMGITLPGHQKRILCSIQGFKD

LYNa = target: T2, LYNa (Homo sapiens, UniProt P07948); test: as above; settings: read-out: %Inhibition (1 μM WSD-0922)
T2 construct: gene LYN
T2 sequence (P07948 2-512): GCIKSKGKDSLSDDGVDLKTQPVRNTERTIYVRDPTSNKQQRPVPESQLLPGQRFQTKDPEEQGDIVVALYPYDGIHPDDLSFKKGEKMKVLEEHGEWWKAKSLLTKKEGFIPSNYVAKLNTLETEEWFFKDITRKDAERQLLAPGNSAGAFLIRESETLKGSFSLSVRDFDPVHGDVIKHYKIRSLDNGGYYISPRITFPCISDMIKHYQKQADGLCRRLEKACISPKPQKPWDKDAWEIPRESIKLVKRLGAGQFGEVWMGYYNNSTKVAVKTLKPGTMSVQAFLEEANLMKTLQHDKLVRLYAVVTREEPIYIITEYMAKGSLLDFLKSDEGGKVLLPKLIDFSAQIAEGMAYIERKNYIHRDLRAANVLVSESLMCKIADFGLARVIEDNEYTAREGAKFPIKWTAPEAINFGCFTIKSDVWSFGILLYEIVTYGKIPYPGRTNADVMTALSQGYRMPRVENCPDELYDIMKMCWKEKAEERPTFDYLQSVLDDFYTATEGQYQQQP

SRC = SRC (Homo sapiens, UniProt P12931); test: as above; settings: read-out: %Inhibition (1 μM WSD-0922)
Chain of SRC (P12931 2-536): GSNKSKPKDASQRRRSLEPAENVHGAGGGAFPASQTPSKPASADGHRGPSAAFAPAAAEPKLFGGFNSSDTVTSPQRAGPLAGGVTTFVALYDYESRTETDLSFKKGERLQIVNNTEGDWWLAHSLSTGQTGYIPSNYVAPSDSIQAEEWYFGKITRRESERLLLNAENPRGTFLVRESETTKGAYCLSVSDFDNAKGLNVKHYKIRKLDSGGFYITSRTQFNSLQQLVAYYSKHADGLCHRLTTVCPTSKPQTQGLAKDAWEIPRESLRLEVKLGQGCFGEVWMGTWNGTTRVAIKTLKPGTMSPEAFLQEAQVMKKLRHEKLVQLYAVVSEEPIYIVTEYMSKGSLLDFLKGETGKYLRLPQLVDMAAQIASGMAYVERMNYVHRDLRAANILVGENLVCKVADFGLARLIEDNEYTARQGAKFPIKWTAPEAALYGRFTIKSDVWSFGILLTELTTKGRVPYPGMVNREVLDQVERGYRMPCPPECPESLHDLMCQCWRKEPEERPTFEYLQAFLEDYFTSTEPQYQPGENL

HCK = HCK (Homo sapiens, UniProt P08631); test: as above; settings: read-out: %Inhibition (1 μM WSD-0922)
Chain of HCK (P08631 2-526): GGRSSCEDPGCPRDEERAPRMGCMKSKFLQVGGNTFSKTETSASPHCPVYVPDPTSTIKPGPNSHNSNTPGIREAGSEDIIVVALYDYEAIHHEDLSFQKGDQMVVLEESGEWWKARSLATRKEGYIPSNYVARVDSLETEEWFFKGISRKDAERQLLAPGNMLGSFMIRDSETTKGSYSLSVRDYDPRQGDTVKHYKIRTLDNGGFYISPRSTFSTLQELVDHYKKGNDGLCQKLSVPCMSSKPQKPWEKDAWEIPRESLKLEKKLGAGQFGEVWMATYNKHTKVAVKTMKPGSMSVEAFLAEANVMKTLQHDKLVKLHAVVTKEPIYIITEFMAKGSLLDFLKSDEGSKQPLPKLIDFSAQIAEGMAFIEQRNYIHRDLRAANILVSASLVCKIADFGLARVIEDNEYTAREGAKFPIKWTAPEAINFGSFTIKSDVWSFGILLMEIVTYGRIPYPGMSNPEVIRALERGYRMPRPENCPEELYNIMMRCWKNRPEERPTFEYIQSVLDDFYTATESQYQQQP

HER4 = target: T3, HER4 (Homo sapiens, UniProt Q15303); test: as above; settings: read-out: %Inhibition (1 μM WSD-0922)
T3 construct: gene ERBB4
T3 sequence (Q15303 26-1308): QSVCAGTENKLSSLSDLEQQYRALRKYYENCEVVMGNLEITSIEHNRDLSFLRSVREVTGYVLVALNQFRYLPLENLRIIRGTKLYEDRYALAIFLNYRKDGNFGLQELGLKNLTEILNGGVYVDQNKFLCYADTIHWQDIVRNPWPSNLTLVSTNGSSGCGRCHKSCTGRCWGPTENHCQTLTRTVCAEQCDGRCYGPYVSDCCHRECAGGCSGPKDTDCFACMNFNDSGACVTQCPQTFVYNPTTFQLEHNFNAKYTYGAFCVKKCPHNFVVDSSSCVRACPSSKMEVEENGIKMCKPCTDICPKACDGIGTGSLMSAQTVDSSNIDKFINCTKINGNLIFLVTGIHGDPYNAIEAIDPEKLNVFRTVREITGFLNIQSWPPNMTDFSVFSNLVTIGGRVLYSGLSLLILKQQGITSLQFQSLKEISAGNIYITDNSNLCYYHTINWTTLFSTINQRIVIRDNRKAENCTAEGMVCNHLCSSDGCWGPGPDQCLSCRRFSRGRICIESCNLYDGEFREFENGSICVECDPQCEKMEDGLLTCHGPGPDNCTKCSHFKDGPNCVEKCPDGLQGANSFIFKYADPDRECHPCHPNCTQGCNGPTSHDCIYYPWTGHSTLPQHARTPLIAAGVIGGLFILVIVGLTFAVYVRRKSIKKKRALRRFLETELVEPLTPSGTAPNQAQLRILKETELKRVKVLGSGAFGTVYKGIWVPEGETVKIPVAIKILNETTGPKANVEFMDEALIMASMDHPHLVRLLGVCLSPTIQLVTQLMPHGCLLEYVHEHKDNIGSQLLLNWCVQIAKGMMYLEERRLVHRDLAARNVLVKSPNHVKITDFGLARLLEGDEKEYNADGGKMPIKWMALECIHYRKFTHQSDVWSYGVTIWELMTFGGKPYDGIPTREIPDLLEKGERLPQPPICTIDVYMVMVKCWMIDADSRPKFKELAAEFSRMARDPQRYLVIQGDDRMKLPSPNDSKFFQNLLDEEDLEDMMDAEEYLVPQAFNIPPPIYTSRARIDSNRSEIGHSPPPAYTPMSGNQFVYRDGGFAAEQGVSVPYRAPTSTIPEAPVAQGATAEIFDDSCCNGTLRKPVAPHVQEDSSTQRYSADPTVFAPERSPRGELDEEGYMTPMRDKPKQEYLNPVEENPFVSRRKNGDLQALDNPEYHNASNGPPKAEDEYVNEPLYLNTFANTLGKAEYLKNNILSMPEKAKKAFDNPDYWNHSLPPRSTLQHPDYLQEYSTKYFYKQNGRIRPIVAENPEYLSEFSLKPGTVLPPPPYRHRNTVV

LCK = LCK (Homo sapiens, UniProt P06239); test: as above; settings: read-out: %Inhibition (1 μM WSD-0922)
Chain of LCK (P06239 2-509): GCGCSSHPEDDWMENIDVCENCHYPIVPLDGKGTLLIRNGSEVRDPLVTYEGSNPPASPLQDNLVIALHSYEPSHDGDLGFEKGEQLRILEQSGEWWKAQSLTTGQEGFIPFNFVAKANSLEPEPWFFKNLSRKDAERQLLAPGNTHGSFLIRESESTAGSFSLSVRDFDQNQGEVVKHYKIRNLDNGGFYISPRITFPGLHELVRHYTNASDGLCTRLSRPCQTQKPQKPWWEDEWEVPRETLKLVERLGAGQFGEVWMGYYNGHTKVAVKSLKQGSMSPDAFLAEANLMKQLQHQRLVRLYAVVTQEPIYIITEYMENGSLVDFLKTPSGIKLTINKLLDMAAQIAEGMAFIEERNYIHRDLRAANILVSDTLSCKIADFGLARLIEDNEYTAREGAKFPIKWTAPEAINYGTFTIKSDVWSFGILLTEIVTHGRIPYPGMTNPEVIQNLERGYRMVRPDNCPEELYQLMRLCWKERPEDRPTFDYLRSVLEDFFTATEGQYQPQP

Chain of EGFR (P00533 25-1210): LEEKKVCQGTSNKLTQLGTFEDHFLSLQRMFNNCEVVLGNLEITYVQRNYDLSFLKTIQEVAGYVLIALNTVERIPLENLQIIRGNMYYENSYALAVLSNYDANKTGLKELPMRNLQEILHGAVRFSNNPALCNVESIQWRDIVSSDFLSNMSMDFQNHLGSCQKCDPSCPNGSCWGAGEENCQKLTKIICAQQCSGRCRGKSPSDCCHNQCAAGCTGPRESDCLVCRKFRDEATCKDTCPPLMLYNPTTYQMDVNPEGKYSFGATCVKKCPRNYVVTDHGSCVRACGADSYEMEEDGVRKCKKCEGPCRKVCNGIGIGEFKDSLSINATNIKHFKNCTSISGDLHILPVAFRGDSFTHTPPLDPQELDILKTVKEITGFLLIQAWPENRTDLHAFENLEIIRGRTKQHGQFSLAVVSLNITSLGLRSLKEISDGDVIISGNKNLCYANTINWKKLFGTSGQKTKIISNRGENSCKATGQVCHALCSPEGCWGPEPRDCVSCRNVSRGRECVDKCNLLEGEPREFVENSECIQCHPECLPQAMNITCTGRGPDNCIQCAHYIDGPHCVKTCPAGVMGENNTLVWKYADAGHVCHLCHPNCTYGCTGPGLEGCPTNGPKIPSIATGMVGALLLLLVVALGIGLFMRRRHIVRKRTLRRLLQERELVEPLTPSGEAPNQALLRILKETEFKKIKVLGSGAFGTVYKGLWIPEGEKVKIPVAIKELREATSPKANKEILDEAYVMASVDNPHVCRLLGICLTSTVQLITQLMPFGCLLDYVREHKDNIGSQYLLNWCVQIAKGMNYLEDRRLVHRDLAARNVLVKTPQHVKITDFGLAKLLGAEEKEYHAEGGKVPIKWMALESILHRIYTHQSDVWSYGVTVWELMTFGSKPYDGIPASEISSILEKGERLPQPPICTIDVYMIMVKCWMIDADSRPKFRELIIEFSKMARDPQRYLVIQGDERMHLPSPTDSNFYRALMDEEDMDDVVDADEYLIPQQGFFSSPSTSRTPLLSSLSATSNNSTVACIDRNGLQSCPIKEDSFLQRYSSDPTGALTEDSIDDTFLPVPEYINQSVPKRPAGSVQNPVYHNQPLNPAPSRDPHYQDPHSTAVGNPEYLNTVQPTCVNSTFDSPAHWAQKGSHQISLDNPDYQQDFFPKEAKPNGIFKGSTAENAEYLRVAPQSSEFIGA

Structure (SMILES): C#Cc1cccc(Nc2ncnc3cc(OC)c(O[C@@H]4CCN(C)CC4(F)F)cc23)c1F [WSD-0922]
- IC50 (EGFR): 0.056 nM
- inhibition at 1 µM (EPHA1): 55.4%
- inhibition at 1 µM (LYNa): 70.9%
- inhibition at 1 µM (SRC): 39.5%
- inhibition at 1 µM (HCK): 49.7%
- inhibition at 1 µM (HER4): 69.8%
- inhibition at 1 µM (LCK): 46.2%
